From patent publication US8481538B2, “Heterocyclic inhibitors of c-Met and uses thereof” (Vertex Pharmaceuticals Incorporated, priority 2006, dated 2013) come the findings set out here.

The target of this experiment is c-Met (Homo sapiens, UniProt P08581). Put plainly: Ki determination for the inhibition of c-Met (standard radiometric kinase assay). The class given is biochemical. As to conditions: radiometric 33P-ATP assay, 1.0 nM c-Met, 35 μM ATP, 0.5 mg/mL polyE4Y, competitive tight-binding fit. The protocol: Ki Determination for the Inhibition of c-Met
Compounds of the invention were screened for their ability to inhibit c-Met kinase activity using a standard radiometric assay. Briefly, in this kinase assay the transfer of the terminal ^33P-phosphate in ^33P-ATP to substrate polyE4Y is interrogated. The assay was carried out in 96-well plates to a final volume of 100 μL per well containing 1.0 nM c-Met, 100 mM HEPES (pH 7.5), 10 mM MgCl2, 25 mM NaCl, 0.01% BSA, 1 mM DTT, 0.5 mg/mL polyE4Y, and 35 μM ATP. Accordingly, compounds of the invention were dissolved in DMSO to make 10 mM initial stock solutions. Serial dilutions in DMSO were then made to obtain the final solutions for the assay. A 1.5 μL aliquot of DMSO or inhibitor in DMSO was added to each well. The reaction was initiated by the addition of ^33P-ATP and polyE4Y (obtained from Sigma). After 20 min, the reaction was quenched with 50 μL of 30% trichloroacetic acid (TCA) containing 4 mM ATP. The reaction mixture was transferred to the 0.66 mm GF filter plates (Corning) and washed three times with 5% TCA. Following the addition of 50 μL of Ultimate Gold™ high efficiency scintillant (Packard Bioscience), the samples were counted in a Packard TopCount NXT Microplate Scintillation and Luminescence Counter (Packard BioScience). The Ki values were calculated using Microsoft Excel Solver macros to fit the data to the kinetic model for competitive tight-binding inhibition.

Sequence of c-Met (P08581 25-1390): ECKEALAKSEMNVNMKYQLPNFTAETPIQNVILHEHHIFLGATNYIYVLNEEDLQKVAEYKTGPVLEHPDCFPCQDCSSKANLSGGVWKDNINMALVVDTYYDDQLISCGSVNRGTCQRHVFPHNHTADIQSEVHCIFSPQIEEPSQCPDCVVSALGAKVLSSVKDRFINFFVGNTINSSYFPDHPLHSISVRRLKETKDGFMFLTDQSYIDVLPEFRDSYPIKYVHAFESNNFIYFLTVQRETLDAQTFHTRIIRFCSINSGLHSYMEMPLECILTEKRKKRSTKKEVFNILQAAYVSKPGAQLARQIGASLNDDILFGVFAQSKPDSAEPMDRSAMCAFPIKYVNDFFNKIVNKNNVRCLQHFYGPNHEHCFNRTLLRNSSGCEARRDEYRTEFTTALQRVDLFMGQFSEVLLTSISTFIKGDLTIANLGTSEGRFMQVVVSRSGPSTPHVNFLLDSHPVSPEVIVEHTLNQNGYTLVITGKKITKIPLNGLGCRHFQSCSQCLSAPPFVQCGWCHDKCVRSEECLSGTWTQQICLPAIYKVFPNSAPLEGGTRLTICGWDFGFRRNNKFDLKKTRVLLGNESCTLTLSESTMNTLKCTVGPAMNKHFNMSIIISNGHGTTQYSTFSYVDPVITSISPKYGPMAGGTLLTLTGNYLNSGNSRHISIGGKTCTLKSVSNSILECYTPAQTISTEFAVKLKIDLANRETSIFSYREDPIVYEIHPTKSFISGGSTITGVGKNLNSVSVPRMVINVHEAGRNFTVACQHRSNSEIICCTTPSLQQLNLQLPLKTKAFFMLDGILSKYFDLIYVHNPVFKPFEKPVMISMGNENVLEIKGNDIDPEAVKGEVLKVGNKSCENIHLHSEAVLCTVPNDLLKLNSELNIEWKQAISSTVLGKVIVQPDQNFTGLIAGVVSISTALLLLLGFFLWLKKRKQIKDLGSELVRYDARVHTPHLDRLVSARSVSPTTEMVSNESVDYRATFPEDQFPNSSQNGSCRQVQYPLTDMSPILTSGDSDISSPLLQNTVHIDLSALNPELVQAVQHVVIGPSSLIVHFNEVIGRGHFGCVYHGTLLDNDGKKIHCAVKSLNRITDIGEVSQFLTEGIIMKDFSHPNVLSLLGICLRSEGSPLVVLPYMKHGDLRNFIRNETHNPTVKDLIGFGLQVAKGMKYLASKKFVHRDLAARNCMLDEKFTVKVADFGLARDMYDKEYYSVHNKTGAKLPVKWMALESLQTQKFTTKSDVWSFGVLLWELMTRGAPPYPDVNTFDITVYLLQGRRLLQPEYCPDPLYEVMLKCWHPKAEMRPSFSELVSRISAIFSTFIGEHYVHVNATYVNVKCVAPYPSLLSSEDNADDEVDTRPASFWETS

`CN(Cc1cccnc1)Cc1nnc2ccc(Nc3cccc(Cl)c3)nn12` [Compound 1]: the Ki is ≤ 250 nM.
Then `Clc1cccc(Nc2ccc3nnc(COCc4cccnc4)n3n2)c1` [Compound 2, 3-(((pyridin-3-yl)methoxy)methyl)-N-(3-chlorophenyl)-[1,2,4]triazolo[4,3-b]pyridazin-6-amine], with ≤ 250 nM.
Then `Clc1cccc(Nc2ccc3nnc(CNCc4ccccn4)n3n2)c1` [Compound 3], with > 2500 nM; and `Clc1cccc(Nc2ccc3nnc(CNCc4cccnc4)n3n2)c1` [Compound 4], with > 2500 nM; and `O=C(Cc1nnc2ccc(Nc3cccc(Cl)c3)nn12)Nc1cnccn1` [Compound 5], with > 2500 nM.
Then `O=C(Cc1nnc2ccc(Nc3cccc(Cl)c3)nn12)NCc1cccnc1` [Compound 6], with > 2500 nM.
As to `CN(C(=O)Cc1nnc2ccc(Nc3cccc(Cl)c3)nn12)c1ccccn1` [Compound 7], the Ki is > 2500 nM.
Then `Nc1cccnc1NC(=O)Cc1nnc2ccc(Nc3cccc(Cl)c3)nn12` [Compound 8], with 250 to 2500 nM; and `C[C@@H](NC(=O)c1cccnc1)c1nnc2ccc(Nc3cccc(Cl)c3)nn12` [Compound 10], with > 2500 nM; and `CN(Cc1cccnc1N)Cc1nnc2ccc(Nc3cccc(Cl)c3)nn12` [Compound 11, N-(3-chlorophenyl)-3-(2-(N-((2-aminopyridin-3-yl)methyl)-N-(methyl)amino)methyl)-[1,2,4]triazolo[4,3-b]pyridazin-6-amine], with 250 to 2500 nM.
As to `CN(Cc1nnc2ccc(Nc3cccc(Cl)c3)nn12)C(=O)c1cccnc1` [Compound 12], the Ki is > 2500 nM.
Then `C[C@@H](NC(=O)c1cccnc1N)c1nnc2ccc(Nc3cccc(Cl)c3)nn12` [Compound 13], with 250 to 2500 nM.
In the case of `C[C@@H](NC(=O)c1nccnc1N)c1nnc2ccc(Nc3cccc(Cl)c3)nn12` [Compound 14, N—((R)-1-(6-(3-chlorophenylamino)-[1,2,4]triazolo[4,3-b]pyridazin-3-yl)ethyl)-3-aminopyrazine-2-carboxamide], the Ki is ≤ 250 nM.
For `C[C@@H](NC(=O)Nc1cccnc1)c1nnc2ccc(Nc3cccc(Cl)c3)nn12` [Compound 15, 1-((R)-1-(6-(3-chlorophenylamino)-[1,2,4]triazolo[4,3-b]pyridazin-3-yl)ethyl)-3-(pyridin-3-yl)urea] the value was 250 to 2500 nM; for `C[C@@H](NC(=O)c1cnc2ccccc2n1)c1nnc2ccc(Nc3cccc(Cl)c3)nn12` [Compound 16], 250 to 2500 nM.
For `C[C@@H](NC(=O)c1cc(Br)cnc1N)c1nnc2ccc(Nc3cccc(Cl)c3)nn12` [Compound 17] the value was 250 to 2500 nM; for `C[C@@H](NC(=O)c1nc(Br)cnc1N)c1nnc2ccc(Nc3cccc(Cl)c3)nn12` [Compound 18], 250 to 2500 nM; for `Clc1cccc(Nc2ccc3nnc(COCc4cnccn4)n3n2)c1` [Compound 19], > 2500 nM.
As for `Clc1cccc(Nc2ccc3nnc(CNc4n[nH]c5ncccc45)n3n2)c1` [Compound 20], the Ki is ≤ 250 nM.
Then `C[C@@H](NC(=O)c1nc(-c2ccccc2)cnc1N)c1nnc2ccc(Nc3cccc(Cl)c3)nn12` [Compound 21], with ≤ 250 nM; and `CC(=O)Nc1ccc(-c2cnc(N)c(C(=O)N[C@H](C)c3nnc4ccc(Nc5cccc(Cl)c5)nn34)n2)cc1` [Compound 22], with ≤ 250 nM; and `C[C@@H](NC(=O)c1cc(-c2ccccc2)cnc1N)c1nnc2ccc(Nc3cccc(Cl)c3)nn12` [Compound 23], with ≤ 250 nM.
For `CC(=O)Nc1ccc(-c2cnc(N)c(C(=O)N[C@H](C)c3nnc4ccc(Nc5cccc(Cl)c5)nn34)c2)cc1` [Compound 24] the value was ≤ 250 nM; for `CCC(C)Nc1ccc2nnc([C@@H](C)NC(=O)c3nc(-c4ccccc4)cnc3N)n2n1` (stereo partly shown) [Compound 25], 250 to 2500 nM.
For `CCC(C)Nc1ccc2nnc([C@@H](C)NC(=O)c3nc(-c4ccc(NC(C)=O)cc4)cnc3N)n2n1` (stereo partly shown) [Compound 26] the value was 250 to 2500 nM; for `C[C@@H](NC(=O)c1nc(-c2cnn(C)c2)cnc1N)c1nnc2ccc(Nc3cccc(Cl)c3)nn12` [Compound 27], ≤ 250 nM; for `C[C@H](NC(=O)c1nc(-c2ccccc2)cnc1N)c1nnc2ccc(Nc3cccc(Cl)c3)nn12` [Compound 28], 250 to 2500 nM.
With `C[C@@H](NC(=O)c1nc(-c2cccs2)cnc1N)c1nnc2ccc(Nc3cccc(Cl)c3)nn12` [Compound 29], the Ki was ≤ 250 nM.
Then `Nc1ncc(-c2ccccc2)nc1C(=O)N[C@H](CO)c1nnc2ccc(Nc3cccc(Cl)c3)nn12` [Compound 30], with ≤ 250 nM; and `C[C@@H](NC(=O)c1nc(-c2ccsc2)cnc1N)c1nnc2ccc(Nc3cccc(Cl)c3)nn12` [Compound 31], with ≤ 250 nM; and `C[C@@H](NC(=O)c1nc(-c2ccoc2)cnc1N)c1nnc2ccc(Nc3cccc(Cl)c3)nn12` [Compound 32], with ≤ 250 nM.
Then `C[C@@H](NC(=O)c1nc(C2=CCCC2)cnc1N)c1nnc2ccc(Nc3cccc(Cl)c3)nn12` [Compound 33], with ≤ 250 nM.
For `CC[C@@H](NC(=O)c1nc(-c2ccccc2)cnc1N)c1nnc2ccc(Nc3cccc(Cl)c3)nn12` [Compound 34] the value was 250 to 2500 nM.
`CC(C)[C@@H](NC(=O)c1nc(-c2ccccc2)cnc1N)c1nnc2ccc(Nc3cccc(Cl)c3)nn12` [Compound 35]: the Ki is > 2500 nM.
Then `C#Cc1cnc(N)c(C(=O)N[C@H](C)c2nnc3ccc(Nc4cccc(Cl)c4)nn23)n1` [Compound 36], with ≤ 250 nM.
Then `C=Cc1cnc(N)c(C(=O)N[C@H](C)c2nnc3ccc(Nc4cccc(Cl)c4)nn23)n1` [Compound 37], with ≤ 250 nM; and `C[C@@H](NC(=O)c1nc(C#N)cnc1N)c1nnc2ccc(Nc3cccc(Cl)c3)nn12` [Compound 38], with ≤ 250 nM.
Then `C[C@@H](NC(=O)c1nc(C(N)=O)cnc1N)c1nnc2ccc(Nc3cccc(Cl)c3)nn12` [Compound 39], with ≤ 250 nM; and `C[C@@H](NC(=O)c1nc(C2CCCC2)cnc1N)c1nnc2ccc(Nc3cccc(Cl)c3)nn12` [Compound 40], with ≤ 250 nM; and `C[C@@H](NC(=O)c1nc(-c2cccnc2)cnc1N)c1nnc2ccc(Nc3cccc(Cl)c3)nn12` [Compound 41], with ≤ 250 nM.
For `C[C@@H](NC(=O)c1nc(-c2ccncc2)cnc1N)c1nnc2ccc(Nc3cccc(Cl)c3)nn12` [Compound 42], the Ki is ≤ 250 nM.
For `C[C@@H](NC(=O)c1nc(C#CCO)cnc1N)c1nnc2ccc(Nc3cccc(Cl)c3)nn12` [Compound 43] the value was ≤ 250 nM; for `C[C@@H](NC(=O)c1nc(C#CCCO)cnc1N)c1nnc2ccc(Nc3cccc(Cl)c3)nn12` [Compound 44], ≤ 250 nM.
`C[C@@H](NC(=O)c1nc(C#CC2(O)CCCC2)cnc1N)c1nnc2ccc(Nc3cccc(Cl)c3)nn12` [Compound 45] yielded a Ki of 250 to 2500 nM.
As to `CCC(O)C#Cc1cnc(N)c(C(=O)N[C@H](C)c2nnc3ccc(Nc4cccc(Cl)c4)nn23)n1` (stereo partly shown) [Compound 46], the Ki was ≤ 250 nM.
As to `CCN(CC)CC#Cc1cnc(N)c(C(=O)N[C@H](C)c2nnc3ccc(Nc4cccc(Cl)c4)nn23)n1` [Compound 47], the Ki is ≤ 250 nM.
The compound `C[C@@H](NC(=O)c1nc(C#Cc2ccccc2)cnc1N)c1nnc2ccc(Nc3cccc(Cl)c3)nn12` [Compound 48] displayed a Ki of 250 to 2500 nM.
For `C[C@@H](NC(=O)c1nc(C#CCC2CCCC2)cnc1N)c1nnc2ccc(Nc3cccc(Cl)c3)nn12` [Compound 49] the value was 250 to 2500 nM; for `CCCC#Cc1cnc(N)c(C(=O)N[C@H](C)c2nnc3ccc(Nc4cccc(Cl)c4)nn23)n1` [Compound 50], 250 to 2500 nM.
Then `C[C@@H](NC(=O)c1nc(C#CC(C)(C)C)cnc1N)c1nnc2ccc(Nc3cccc(Cl)c3)nn12` [Compound 51], with 250 to 2500 nM.
On to `CCc1cnc(N)c(C(=O)N[C@H](C)c2nnc3ccc(Nc4cccc(Cl)c4)nn23)n1` [Compound 52], for which the Ki lay within 250 to 2500 nM.
Then `C[C@@H](NC(=O)c1nc(C#Cc2ccccn2)cnc1N)c1nnc2ccc(Nc3cccc(Cl)c3)nn12` [Compound 53], with 250 to 2500 nM; and `Cc1n[nH]c(C)c1-c1cnc(N)c(C(=O)N[C@H](C)c2nnc3ccc(Nc4cccc(Cl)c4)nn23)n1` [Compound 54], with ≤ 250 nM.
Then `C[C@@H](NC(=O)c1nc(-c2ccc(CN3CCCC3)cc2)cnc1N)c1nnc2ccc(Nc3cccc(Cl)c3)nn12` [Compound 55], with ≤ 250 nM.
For `C[C@@H](NC(=O)c1nc(C#Cc2cccnc2)cnc1N)c1nnc2ccc(Nc3cccc(Cl)c3)nn12` [Compound 56] the value was 250 to 2500 nM.
For the compound `C[C@@H](NC(=O)c1nc(C#Cc2ccncc2)cnc1N)c1nnc2ccc(Nc3cccc(Cl)c3)nn12` [Compound 57], the Ki fell in the range of 250 to 2500 nM.
Then `CC(=O)Nc1cccc(-c2cnc(N)c(C(=O)N[C@H](C)c3nnc4ccc(Nc5cccc(Cl)c5)nn34)n2)c1` [Compound 58], with ≤ 250 nM; and `C[C@@H](NC(=O)c1nc(C#CC2CC2)cnc1N)c1nnc2ccc(Nc3cccc(Cl)c3)nn12` [Compound 61], with 250 to 2500 nM.
